Assay results published in patent publication US20240317826A1, “COMPOSITIONS AND METHODS FOR TREATING AND/OR I[…] AGENT FOR TREATING HIV-1 INFECTIONS” (priority 2021, published 2024).
Entries after “also recorded” stand apart in the source; their conditions may differ. Like-named read-outs stand apart in the source and are kept apart here.

How the values were obtained:
[1] = test system: reactivated HIV-1 from latent cells (J1.1); assay: Co-culture of PMA-reactivated latent J1.1 cells with CEM-GFP cells; type: cell-based; design: inhibition of infection of CEM-GFP cells by reactivated virus (green cells): dose or concentration left out as unconfirmed; settings: J1.1 + CEM-GFP co-culture; for inhibition of infection of CEM-GFP cells by reactivated virus (green cells): PMA, images day 2 postinduction; for inhibition of virus spread, p24 levels in culture: p24 on day 5
Excerpt: FIG. 13A-FIG. 13C show staple peptides inhibit infection of reactivated HIV-1 from latent cells. […] Cells harboring latent virus (J1.1) were co-cultured with CEM-GFP cells in the presence and absence of stapled peptides. Addition of PMA reactivates HIV-1 from latent cells which infect CEM cells to induce expression of GFP. […] Images were taken on day 2 postinduction. […] Experiments was done in triplicates and the graph represents mean+/−SEM.
As a proof-of-concept to test if the stapled peptides inhibit spreading of the reactivated latent viruses, we used an in vitro cell line model of latency, J1.1 cells. J1.1 have a single latently integrated provirus which is activated using LRAs. We activated the latently integrated provirus by the addition of PMA and then mixed them with CEM-GFP cells in the cultures. Infection of CEM-GFP cells with virus produced from J1.1 upon reactivation turns the CEM-GFP T-cells green (FIGS. 13a and b right side panels). We tested the effect of addition of stapled peptides in this co-culture experiment (FIGS. 13a and b middle and left side panels). […] We furthermore determined the p24 released from the culture supernatant as a measure of the virus production in the presence and absence of stapled peptides (FIG. 13c).

[2] = biological target: T1, IN/INI1 complex (Human immunodeficiency virus type 1 group M subtype B, UniProt P04585); assay: co-IP in 293T cells: HA-INI1 bound to YFP-IN; type: cell-based, HIV-1
T1 construct: expressed in transfected cells; host or cells: 293T cells
Excerpt: Panels d-g show the input RNA and protein levels within transfected cells: the RT-PCR analysis of input TAR RNA levels (panel d); Immunoblot analysis of input HA-INI1 (panel e); input YFP-IN (panel f); and GAPDH level for loading control (panel g). Lane 1 is RNA-co-IP using isotype IgG control antibodies and lanes 2-7 are RNA-co-IP using anti-GFP antibodies to pull down IN. There is ˜1000 fold inhibition of RNA and INI1 binding to IN in the presence of SP-38 peptide (compare lane 6 to lane 5).
To determine if stapled peptides can inhibit interaction of IN with TAR RNA in cells, we carried out RNA-co-IP experiments (FIG. 8e). YFP-IN and TAR RNA were expressed by co-transfecting plasmids pYFP-fN, pLTIR-luc and pTat in 293T cells. Cells were treated with SP-38 or SP-83 (D225G mutant) peptides. After transfection, the cell lysates were treated with DNaseI and subjected to immunoprecipitation (IP) using α-GFP antibodies to pull down YFP-IN and associated complexes. RNA was separated from the immune complexes and subjected to RT-PCR to detect bound TAR RNA (FIG. 8e, panel a). Immunoblot analysis of bound proteins were carried out using: α-HA to detect bound HA-INI1 (FIG. 8e, panel b) and α-GFP to detect YFP-IN (FIG. 8e, panel c). RT-PCR of the RNA isolated from cell lysate was used as input control (FIG. 8e, panel d). Immunoblot analysis of total proteins from cell lysates as input control were carried out using α-HA to detect input HA-INI1 (FIG. 8e, panel e), α-GFP to detect input YFP-IN (FIG. 8e, panel f), and α-GAPDH to detect GAPDH as loading control (FIG. 8e, panel g). […] Expression of both GFP-IN and TAR RNA in the cells led to successful RNA-co-IP by α-GFP antibodies (FIG. 8e, lane 5).

[3] = biological target: T2, IN-TAR RNA interaction (Human immunodeficiency virus type 1 group M subtype B, UniProt P04585); assay: Alpha interaction assay: effect of stapled peptides on IN-TAR RNA interaction; type: binding, HIV-1; settings: in vitro
T2 construct: made in house; host or cells: bacteria (E. coli inferred from the pGEX vector)
Method: FIG. 8A-FIG. 8D show quantitative alpha interaction assay to determine the effect of stapled peptides on the interaction of IN and IN-CTD with INI1 and INI1183-304 or TAR RNA. […] Fixed concentrations of GST-IN, 6His-INI1, and TAR RNA were incubated with increasing concentration of stapled peptides and the interaction was detected as Alpha Score. The IC50 values were determined by fitting the data to a four-parameter dose-response curve using Graph Pad prism. All the graphs represent the average of three independent experiments (Mean+/−SEM).
AlphaScreen proximity assay to detect the protein-protein and protein-RNA interactions. AlphaScreen assay was carried out using PerkinElmer Alpha-Lisa-6His Acceptor beads (Catalogue #AL128C), Alpha-Screen-GST donor beads (Catalogue #6765300), GST-tagged and His-tagged proteins for protein-protein interactions; and Alpha-Screen Streptavidin donor beads (Catalogue #6760002 S), Alpha-Lisa-GST acceptor beads (Catalogue #AL110C), Biotin-labeled RNA and GST-tagged proteins for protein-RNA interactions. The reaction was carried out according to the manufacturer's protocol in a reaction buffer contacting (25 mM HEPES pH 7.4, 100 mM NaCl (or 500 mM NaCl), 1 mM DTT, 1 mM MgCl2 and BSA 1 mg ml/ml). The mixture of proteins or protein and RNA were incubated for 1 hr at room temperate with shaking in a multi micro-plate shaker and then 20 ag ml/ml accepter beads were added and incubated for additional 1 h with shaking. Finally, 20 ag ml^−1 of donor beads were added and further incubated for 1 hr. The Alpha score readings were measured using Alpha-compatible Envision 2105 multi-plate reader (Perkin-Elmer). All the experiments related to this method were carried out 3 to 5 times and data were analyzed by using Graph Pad Prism 9 version 9.0.0 (GraphPad Software, CA). The RNA sequences used in this assay are listed in the Table 6d and were obtained from Integrated DNA technology.
These peptides were tested for their ability to disrupt the interaction between IN-INI1 and IN-TAR RNA in vitro.

[4] = test system: HIV-1NL4-3; assay: Multiday HIV-1 replication assay in CEM-GFP cells; type: cell-based; settings: CEM-GFP cells infected with HIV-1NL4-3; 1 and 5 micromolar peptide; GFP expression and p24 in culture supernatants
Excerpt: FIG. 9A-FIG. 9C show an inhibition of HIV-1 replication by Stapled peptides in a multiday replication assay in CEM-GFP cells. […] FIG. 9B and FIG. 9C show images representing the expression of GFP in CEM GFP cells in presence or absence of 1 and 5 micromolar Stapled peptides or DMSO control. FIG. 9D and FIG. 9E show p24 ELISA analysis of culture supernatants from CEM-GFP cells from panels FIG. 9B and FIG. 9C samples. The CEM-GFP cells were infected with HIV-1NL4-3 and treated with stapled peptides. Culture supernatants were collected on multiple days as indicated and p24 analysis was carried out.
To determine if the stapled peptides can inhibit HIV-1 replication in cell culture, we used CEM-GFP cell lines, which harbor LTR-GFP as a reporter. HIV-1 infection of these cells activates GFP expression.

Substance | inhibition of infection of CEM-GFP cells by reactivated virus (green cells) [1] | inhibition of virus spread, p24 levels in culture [1] | inhibition of IN/INI1 complex formation within cells [2] | inhibition of INI1 binding to IN ([2]; immunoblot of bound HA-INI1) [fold] | IC50, inhibition of IN-TAR RNA interactions [3] | inhibition of HIV-1 propagation/replication [4] | inhibition of IN/INI1 complex formation within cells ([2]; listed as SP83 (D225G)) | inhibition of IN-TAR RNA interactions [3]
lys-Leu-Met-Thr-Pro-Glu-Met-Phe-S5-Glu-Ile-Leu-S5-Cys-Asp-Leu-Asn [SP38] | inhibited the infection | inhibited the virus spread; also recorded: inhibits p24 levels in induced and uninduced conditions | potently inhibits | ~1000 | low nanomolar | Inhibits HIV-1 Replication at Low Micromolar Concentrations; also recorded: potently inhibited | – | –
lys-Leu-Met-Thr-Pro-Glu-Met-Phe-S5-Glu-Ile-Leu-S5-Cys-Gly-Leu-Asn [SP83] | not | not | not | – | – | not | does not inhibit | not
